US7342089B2, “Cyclic peptides for treatment for cachexia” (Palatin Technologies, Inc., priority 2002, dated 2008)
Positions of bridges follow the written chain, without caps; N, C: chain ends. Non-standard residues stand in square brackets, D forms with d. Residues, ends and D or L forms follow the SMILES beside them. 2Nal = N[C@@H](Cc1ccc2ccccc2c1)C(=O)O; d2Nal = N[C@H](Cc1ccc2ccccc2c1)C(=O)O; Nle = CCCC[C@H](N)C(=O)O

Columns and labels:
hMC3-R = molecular target: T1, hMC3-R (Homo sapiens, UniProt P41968); experiment: Competitive inhibition binding assay using [I125]-NDP-α-MSH, hMC3-R; conditions: HEK-293 membranes, read-out: Ki MC3-R
T1 construct: expressed in transfected cells; host or cells: HEK-293
T1 sequence (P41968 whole entry): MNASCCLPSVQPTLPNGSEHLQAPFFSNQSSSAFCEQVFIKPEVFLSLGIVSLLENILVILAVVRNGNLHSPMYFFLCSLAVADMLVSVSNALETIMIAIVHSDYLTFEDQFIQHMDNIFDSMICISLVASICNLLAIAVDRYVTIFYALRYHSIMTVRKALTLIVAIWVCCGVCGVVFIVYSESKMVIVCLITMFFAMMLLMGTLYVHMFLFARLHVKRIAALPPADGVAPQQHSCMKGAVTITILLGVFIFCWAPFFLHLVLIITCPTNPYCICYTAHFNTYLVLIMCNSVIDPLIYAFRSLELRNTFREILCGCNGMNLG

[1] = molecular target: T2, MC1-R (B-16 mouse melanoma cells) (Mus musculus, UniProt Q01727); experiment: Competitive inhibition binding assay using [I125]-NDP-α-MSH, MC1-R; conditions: B-16 mouse melanoma cell membranes
T2 sequence (Q01727 whole entry): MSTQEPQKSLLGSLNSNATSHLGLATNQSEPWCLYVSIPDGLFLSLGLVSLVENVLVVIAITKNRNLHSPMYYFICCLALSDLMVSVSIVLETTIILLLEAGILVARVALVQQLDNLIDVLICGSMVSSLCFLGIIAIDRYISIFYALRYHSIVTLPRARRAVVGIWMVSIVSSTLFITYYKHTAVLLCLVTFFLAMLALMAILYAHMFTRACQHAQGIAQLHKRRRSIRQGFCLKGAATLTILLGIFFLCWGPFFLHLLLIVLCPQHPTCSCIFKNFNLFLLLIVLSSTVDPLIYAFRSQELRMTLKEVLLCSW
Procedure: Each assay is conducted in triplicate.

[2] = molecular target: T2, MC1-R (B-16 mouse melanoma cells); experiment: cAMP assay for agonist/antagonist status, MC1-R; type: cell-based; conditions: for EC50: read-out: EC50 as to MC1-R
Procedure: Cells are incubated with the test peptides in the presence or absence of α-MSH for 1 hour at 37° C. cAMP levels in the cell lysates are measured using the EIA kit (Amersham). Data analysis and EC50 values are determined using nonlinear regression analysis with Prism Graph-Pad software.
The agonist/antagonist status with respect to MC1-R, MC4-R and MC5-R of certain peptides of the invention is determined. Antagonistic activity is determined by measuring the inhibition of α-MSH-induced or NDP-α-MSH-induced cAMP levels following exposure to the peptides as in the preceding descriptions.

hMC4-R = molecular target: T3, hMC4-R (Homo sapiens, UniProt P32245); experiment: Competitive inhibition binding assay using [I125]-NDP-α-MSH, hMC4-R; conditions: HEK-293 membranes, read-out: Ki MC4-R
T3 construct: expressed in transfected cells; host or cells: HEK-293
T3 sequence (P32245 whole entry): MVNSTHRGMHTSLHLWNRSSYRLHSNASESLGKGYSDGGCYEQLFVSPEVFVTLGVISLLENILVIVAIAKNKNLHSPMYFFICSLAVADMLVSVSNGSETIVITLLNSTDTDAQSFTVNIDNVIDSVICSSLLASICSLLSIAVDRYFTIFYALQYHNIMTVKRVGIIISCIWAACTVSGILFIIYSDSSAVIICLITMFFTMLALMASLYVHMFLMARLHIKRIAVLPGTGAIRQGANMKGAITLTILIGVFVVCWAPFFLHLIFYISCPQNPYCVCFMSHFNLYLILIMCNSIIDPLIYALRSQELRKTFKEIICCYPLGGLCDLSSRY

rats = experiment: ICV feeding studies; type: in vivo, rat; conditions: lowest value of multiple tests, parentheses = decrease
Procedure: (§1) Change in food intake and body weight is evaluated for selected peptides. Rats with indwelling intracerebroventricular cannulas (ICV rats) are obtained from Hilltop Lab Animals, Inc. (Scottdale, Pa.). Animals are individually housed in conventional plexiglass hanging cages and maintained on a controlled 12 hour on/off light cycle. Water and powdered (LabDiet, 5P00 Prolab RMH 3000) or pelleted (Harlan Teklad 2018 18% Protein Rodent Diet) food is provided ad libitum. For 1 week before treatment, 24-hour food intake and body weight change is recorded to assess a baseline for the group during vehicle treatment. The rats are dosed ICV with vehicle or selected cyclic peptides (0.3-3 nmol). The changes in body weight and food intake for the 24 hour period after dosing are determined. The changes in body weight and food intake for the 48 hour and 72 hour periods after dosing are also measured to determine reversal of changes in body weight and food intake effects back to baseline levels.
A series of ICV feeding studies were conducted on rats. All animals were dosed on the first day with saline ICV, and given a pre-weighed food bowl with food weight recorded at 2 and 21 hours post-ICV injection. On day 2, animals were randomized based on the 21 hour food consumption, with animals eliminated due to low food consumption or food spills. […] Food weights were again recorded at 2, 4, 21 and 24 hours post-icv injection. In most instances, multiple different tests were conducted which each group containing between 8 and 12 members; the lowest value is shown below. Values are shown as percent increase (decrease) in aggregate food intake. “ND” means no test was conducted at that dose level.

hMC4-R (HEK-293 cells) = molecular target: T4, hMC4-R (HEK-293 cells) (Homo sapiens, UniProt P32245); experiment: cAMP assay for agonist/antagonist status and functional antagonism, MC4-R; type: cell-based; conditions: for agonist/antagonist status as to MC4-R: cAMP assay; for Kb: functional antagonism, Schild's analysis vs NDP-α-MSH, read-out: pA2 value as to MC4-R (converted)
T4 construct: expressed in transfected cells; host or cells: HEK-293
T4 sequence (P32245 whole entry): as above

hMC3-R (HEK-293 cells) = molecular target: T5, hMC3-R (HEK-293 cells) (Homo sapiens, UniProt P41968); experiment: cAMP assay for agonist/antagonist status and functional antagonism, MC3-R; type: cell-based; conditions: for Kb: read-out: pA2 value as to MC3-R (converted)
T5 construct: expressed in transfected cells; host or cells: HEK-293
T5 sequence (P41968 whole entry): as the sequence (P41968 whole entry) above

hMC5-R = molecular target: T6, hMC5-R (Homo sapiens, UniProt P33032); experiment: Competitive inhibition binding assay using [I125]-NDP-α-MSH, hMC5-R; conditions: HEK-293 membranes, read-out: Ki MC5-R
T6 construct: expressed in transfected cells; host or cells: HEK-293
T6 sequence (P33032 whole entry): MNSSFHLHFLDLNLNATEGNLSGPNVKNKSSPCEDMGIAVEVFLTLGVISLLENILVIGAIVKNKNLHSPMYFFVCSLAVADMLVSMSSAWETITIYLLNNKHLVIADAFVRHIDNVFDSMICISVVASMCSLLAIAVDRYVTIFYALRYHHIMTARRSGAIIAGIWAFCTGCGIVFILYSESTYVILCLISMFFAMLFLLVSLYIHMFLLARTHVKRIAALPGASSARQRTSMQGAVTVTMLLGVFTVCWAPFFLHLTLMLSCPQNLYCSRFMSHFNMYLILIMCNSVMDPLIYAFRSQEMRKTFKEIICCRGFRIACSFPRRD

male Sprague-Dawley rats = experiment: IV food intake and body weight change; type: in vivo, rat; conditions: 1 mg/kg IV, 24 hour period (FIG. 1)
Procedure: as §1, with “peptides. Male Sprague-Dawley rats” for “peptides. Rats with indwelling intracerebroventricular cannulas (ICV rats)”, “from Taconic (Germantown, N.Y.).” for “from Hilltop Lab Animals, Inc. (Scottdale, Pa.).”, “dosed IV or IP” for “dosed ICV”, “selected” for “selected cyclic”, “peptides (0.5-3 mg/kg).” for “peptides (0.3-3 nmol).”, “to determined” for “to determine”
Briefly, male Sprague-Dawley rats (300-350 g) were individually housed in shoe box cages with a 12 hr light/dark period. Food intake and body weights were monitored for 24 hours prior to the start of the study. Rats were randomized by body weight and then dosed IV just before lights-off with the compound of Example 12 or the same volume of vehicle. A pre-weighed amount of food was provided and food intake was determined at 2, 4, 20 and 24 hours. […]

SMILES	Ki (hMC3-R) [nM]	Ki [1] [nM]	agonist/antagonist status as to MC1-R [2]	EC50 [2] [nM]	Ki (hMC4-R) [nM]	agonist/antagonist status as to MC4-R (hMC4-R (HEK-293 cells))	Kb (hMC4-R (HEK-293 cells)) [nM]	agonist/antagonist status as to MC3-R (hMC3-R (HEK-293 cells); cAMP assay)	Ki (hMC5-R) [nM]	Kb (hMC3-R (HEK-293 cells)) [nM]	EC50 (hMC3-R (HEK-293 cells); cAMP assay, read-out: EC50 as to MC3-R) [nM]	Percent Increase (Decrease) In Aggregate Food Intake After ICV Administration of Peptide Compared to Vehicle (Saline) (rats; 1 nmol) [%]	Percent Increase (Decrease) In Aggregate Food Intake After ICV Administration of Peptide Compared to Vehicle (Saline) (rats; 0.3 nmol) [%]	agonist/antagonist status at MC1-R ([2]; peptide at 1 μM concentration)	cumulative food intake compared to vehicle (male Sprague-Dawley rats)
CC(=O)N[C@H]1CC(=O)NCCCC[C@@H](C(=O)O)NC(=O)[C@H](Cc2ccc3ccccc3c2)NC(=O)[C@H](CCCNC(=N)N)NC(=O)[C@@H](Cc2ccc3ccccc3c2)NC(=O)[C@H](Cc2c[nH]cn2)NC1=O [Example 15, Ac-cyclo(-Asp-His-D-Nal 2-Arg-Nal 2-Lys)-OH] (Ac-DH[d2Nal]R[2Nal]K-OH; lactam 1-6)	6	143	partial agonist	2150	2	antagonist	10	antagonist	89	–	–	32	–	–	–
CNC(=O)[C@@H]1CCCCNC(=O)C[C@H](NC(C)=O)C(=O)N[C@@H](Cc2c[nH]c3ccccc23)C(=O)N[C@H](Cc2ccc3ccccc3c2)C(=O)N[C@@H](CCCNC(=N)N)C(=O)N[C@@H](Cc2ccc3ccccc3c2)C(=O)N1 [Example 19, Ac-cyclo(-Asp-Trp-D-Nal 2-Arg-Nal 2-Lys)-NH—CH3] (Ac-DW[d2Nal]R[2Nal]K-NHMe; lactam 1-6)	3	643	–	–	0.06	antagonist	1.26	antagonist	6	8.51	–	32	28	inactive	–
CC(=O)N[C@H]1CC(=O)NCCCC[C@@H](C(=O)O)NC(=O)[C@H](Cc2c[nH]c3ccccc23)NC(=O)[C@H](CCCNC(=N)N)NC(=O)[C@@H](Cc2ccc3ccccc3c2)NC(=O)[C@H](Cc2c[nH]cn2)NC1=O [Example 14, Ac-cyclo(-Asp-His-D-Nal 2-Arg-Trp-Lys)-OH]	55	181	agonist	4420	2	antagonist	186	antagonist	191	–	1	16	–	–	–
CCCC[C@H](NC(C)=O)C(=O)N[C@H]1CC(=O)NCCCC[C@@H](C(=O)O)NC(=O)[C@H](Cc2ccc3ccccc3c2)NC(=O)[C@H](CCCNC(=N)N)NC(=O)[C@@H](Cc2ccc3ccccc3c2)NC(=O)[C@H](Cc2c[nH]cn2)NC1=O [Example 12, Ac-Nle-cyclo(-Asp-His-D-Nal 2-Arg-Nal 2-Lys)-OH] (Ac-[Nle]DH[d2Nal]R[2Nal]K-OH; lactam 2-7)	0.3	0.2	partial agonist	5	0.02	antagonist	7.59	antagonist	0.2	–	–	48	36	–	increase in food intake
CCCC[C@H](NC(C)=O)C(=O)N[C@H]1CC(=O)NCCCC[C@@H](C(=O)O)NC(=O)[C@H](Cc2c[nH]c3ccccc23)NC(=O)[C@H](CCCNC(=N)N)NC(=O)[C@@H](Cc2ccc3ccccc3c2)NC(=O)[C@H](Cc2c[nH]cn2)NC1=O [Example 11, Ac-Nle-cyclo(-Asp-His-D-Nal 2-Arg-Trp-Lys)-OH]	–	3	partial agonist	57	–	–	–	–	–	–	–	24	–	–	–
CCCC[C@H](NC(C)=O)C(=O)N[C@H]1CC(=O)NCCCC[C@@H](C(=O)O)NC(=O)[C@H](Cc2ccc3ccccc3c2)NC(=O)[C@H](CCCNC(=N)N)NC(=O)[C@@H](Cc2ccc3ccccc3c2)NC(=O)[C@H](Cc2c[nH]c3ccccc23)NC1=O [Example 13, Ac-Nle-cyclo(-Asp-Trp-D-Nal 2-Arg-Nal 2-Lys)-OH] (Ac-[Nle]DW[d2Nal]R[2Nal]K-OH; lactam 2-7)	–	119	partial agonist	–	–	–	–	–	–	–	–	–	–	–	–

Continued, in another order:

Ki (hMC3-R) [nM]	Ki [1] [nM]	agonist/antagonist status as to MC1-R [2]	EC50 [2] [nM]	Ki (hMC4-R) [nM]	agonist/antagonist status as to MC4-R (hMC4-R (HEK-293 cells))	Kb (hMC4-R (HEK-293 cells)) [nM]	agonist/antagonist status as to MC3-R (hMC3-R (HEK-293 cells); cAMP assay)	Ki (hMC5-R) [nM]	Kb (hMC3-R (HEK-293 cells)) [nM]	EC50 (hMC3-R (HEK-293 cells); cAMP assay, read-out: EC50 as to MC3-R) [nM]	SMILES	Percent Increase (Decrease) In Aggregate Food Intake After ICV Administration of Peptide Compared to Vehicle (Saline) (rats; 1 nmol) [%]	Percent Increase (Decrease) In Aggregate Food Intake After ICV Administration of Peptide Compared to Vehicle (Saline) (rats; 0.3 nmol) [%]	agonist/antagonist status at MC1-R ([2]; peptide at 1 μM concentration)	cumulative food intake compared to vehicle (male Sprague-Dawley rats)
10	1100	partial agonist	> 1000	0.1	antagonist	3.55	antagonist	17	–	–	CC(=O)N[C@H]1CC(=O)NCCCC[C@@H](C(=O)O)NC(=O)[C@H](Cc2ccc3ccccc3c2)NC(=O)[C@H](CCCNC(=N)N)NC(=O)[C@@H](Cc2ccc3ccccc3c2)NC(=O)[C@H](Cc2c[nH]c3ccccc23)NC1=O [Example 16, Ac-cyclo(-Asp-Trp-D-Nal 2-Arg-Nal 2-Lys)-OH] (Ac-DW[d2Nal]R[2Nal]K-OH; lactam 1-6)	4	0	–	–
1	194	partial agonist	> 1000	0.03	antagonist	1.74	antagonist	3	9.12	–	CCNC(=O)[C@@H]1CCCCNC(=O)C[C@H](NC(C)=O)C(=O)N[C@@H](Cc2c[nH]c3ccccc23)C(=O)N[C@H](Cc2ccc3ccccc3c2)C(=O)N[C@@H](CCCNC(=N)N)C(=O)N[C@@H](Cc2ccc3ccccc3c2)C(=O)N1 [Example 17, Ac-cyclo(-Asp-Trp-D-Nal 2-Arg-Nal 2-Lys)-NH—CH2—CH3] (Ac-DW[d2Nal]R[2Nal]K-NHEt; lactam 1-6)	20	32	–	–
1	107	inactive	–	0.03	antagonist	2.04	antagonist	4	51.3	–	CC(=O)N[C@H]1CC(=O)NCCCC[C@@H](C(=O)N(C)C)NC(=O)[C@H](Cc2ccc3ccccc3c2)NC(=O)[C@H](CCCNC(=N)N)NC(=O)[C@@H](Cc2ccc3ccccc3c2)NC(=O)[C@H](Cc2c[nH]c3ccccc23)NC1=O [Example 18, Ac-cyclo(-Asp-Trp-D-Nal 2-Arg-Nal 2-Lys)-N(CH3)2] (Ac-DW[d2Nal]R[2Nal]K-NMe2; lactam 1-6)	24	24	–	–
